Measured values from ChEMBL document CHEMBL3120075 (J Med Chem, 2014).

Legend:
[1] = Mean residence time in cynomolgus monkey at 0.5 mg/kg, iv; assay type: ADME, organism-based, Macaca fascicularis; set-up: dose 0.5 mg/kg, route intravenous; conditions: in vivo
[2] = Oral bioavailability in Sprague-Dawley rat at 2 mg/kg; assay type: ADME, organism-based; conditions: in vivo
[3] = Cmax in fasted healthy human at 10 mg/kg, po; assay type: ADME, organism-based; set-up: dose 10 mg/kg, route oral; conditions: in vivo
Hepatitis C virus [4] = test: Ratio of EC50 for HCV genotype 1b Con1 infected in human HuH7 cells in presence of 10% BSA to EC50 for HCV genotype 1b Con1 infected in human HuH7 cells; assay type: functional, Hepacivirus hominis, isolate Con1, Huh-7
[5] = AUClast in fasted healthy human at 3 mg/kg, po; assay type: ADME, organism-based; set-up: time 0 - last, dose 3 mg/kg, route oral; conditions: plasma
[6] = Ratio of EC50 for HCV genotype 1a H77 infected in human HuH7 cells in presence of 10% BSA to plasma concentration in fasted healthy human at 3 mg/kg, po at 24 hrs; set-up: species or system Huh-7
[7] = AUC (infinity) in fasted healthy human at 3 mg/kg, po; assay type: ADME, organism-based; set-up: time infinity, dose 3 mg/kg, route oral; conditions: plasma
[8] = Half life in fasted healthy human at 30 mg/kg, po; assay type: ADME, organism-based; set-up: dose 30 mg/kg, route oral; conditions: in vivo
Rattus norvegicus = species: Rattus norvegicus; test: Toxicity in Sprague-Dawley rat assessed as adverse effects by 14 day toxicology study; assay type: organism-based; conditions: in vivo, 336 h
[9] = Volume of distribution at steady state in Sprague-Dawley rat at 1 mg/kg, iv; assay type: ADME, organism-based; set-up: dose 1 mg/kg, route intravenous; conditions: in vivo, read-out: Vdss
Hepatitis C virus [10] = test: Antiviral activity against HCV genotype 1b Con1 infected in human HuH7 cells assessed as inhibition of viral RNA replication after 3 days by renilla luciferase reporter gene assay; assay type: functional, organism-based, Hepacivirus hominis; conditions: isolate Con1, Huh-7, 72 h
[11] = AUC (infinity) in fasted healthy human at 10 mg/kg, po; assay type: ADME, organism-based; set-up: time infinity, dose 10 mg/kg, route oral; conditions: plasma
[12] = Metabolic stability in cynomolgus monkey liver microsomes assessed as hepatic extraction at 3 uM after 60 mins by LC/MS/MS analysis; assay type: ADME, Macaca fascicularis, Microsome; conditions: read-out: ERH
[13] = AUClast in fasted healthy human at 60 mg/kg, po; assay type: ADME, organism-based; set-up: dose 60 mg/kg, route oral, time 0 - last; conditions: plasma
[14] = Cmax in fasted healthy human at 3 mg/kg, po; assay type: ADME, organism-based; set-up: dose 3 mg/kg, route oral; conditions: in vivo
[15] = Half life in beagle dog at 0.2 mg/kg, iv; assay type: ADME, organism-based, Canis lupus familiaris; set-up: dose 0.2 mg/kg, route intravenous; conditions: in vivo
[16] = Tmax in fasted healthy human at 30 mg/kg, po; assay type: ADME, organism-based; set-up: dose 30 mg/kg, route oral; conditions: in vivo
[17] = AUClast in fasted healthy human at 10 mg/kg, po; assay type: ADME, organism-based; set-up: time 0 - last, dose 10 mg/kg, route oral; conditions: plasma
[18] = Tmax in fasted healthy human at 60 mg/kg, po; assay type: ADME, organism-based; set-up: dose 60 mg/kg, route oral; conditions: in vivo
[19] = Metabolic stability in beagle dog liver microsomes assessed as hepatic extraction at 3 uM after 60 mins by LC/MS/MS analysis; assay type: ADME, Canis lupus familiaris; conditions: read-out: ERH
Hepatitis C virus [20] = test: Antiviral activity against HCV genotype 1a H77 infected in human HuH7 cells assessed as inhibition of viral RNA replication after 3 days by renilla luciferase reporter gene assay in presence of 10% BSA; assay type: functional, organism-based, Hepacivirus hominis; conditions: genotype 1a H77, Huh-7, 72 h
[21] = Cmax in fasted healthy human at 60 mg/kg, po; assay type: ADME, organism-based; set-up: dose 60 mg/kg, route oral; conditions: in vivo
[22] = Plasma concentration in fasted healthy human at 60 mg/kg, po at 24 hrs; assay type: ADME, organism-based; set-up: dose 60 mg/kg, route oral
[23] = Half life in Sprague-Dawley rat at 1 mg/kg, iv; assay type: ADME, organism-based; set-up: dose 1 mg/kg, route intravenous; conditions: in vivo
[24] = Oral bioavailability in cynomolgus monkey at 1 mg/kg; assay type: ADME, organism-based, Macaca fascicularis; conditions: in vivo
[25] = Half life in fasted healthy human at 60 mg/kg, po; assay type: ADME, organism-based; set-up: dose 60 mg/kg, route oral; conditions: in vivo
[26] = Tmax in fasted healthy human at 10 mg/kg, po; assay type: ADME, organism-based; set-up: dose 10 mg/kg, route oral; conditions: in vivo
[27] = Half life in cynomolgus monkey at 0.5 mg/kg, iv; assay type: ADME, organism-based, Macaca fascicularis; set-up: dose 0.5 mg/kg, route intravenous; conditions: in vivo
[28] = Plasma concentration in fasted healthy human at 30 mg/kg, po at 24 hrs; assay type: ADME, organism-based; set-up: dose 30 mg/kg, route oral
[29] = Clearance in cynomolgus monkey at 0.5 mg/kg, iv; assay type: ADME, organism-based, Macaca fascicularis; set-up: dose 0.5 mg/kg, route intravenous; conditions: in vivo
[30] = AUClast in fasted healthy human at 100 mg/kg, po; assay type: ADME, organism-based; set-up: time 0 - last, dose 100 mg/kg, route oral; conditions: plasma
[31] = Plasma concentration in fasted healthy human at 100 mg/kg, po at 24 hrs; assay type: ADME, organism-based; set-up: dose 100 mg/kg, route oral
Canis familiaris = species: Canis familiaris; test: Toxicity in beagle dog assessed as adverse effects by 14 day toxicology study; assay type: organism-based, Canis lupus familiaris; conditions: in vivo, 336 h

In the case of `COC(=O)N[C@H](C(=O)N1CC2(CC2)C[C@H]1c1nc(-c2ccc3c(c2)C(F)(F)c2cc(-c4ccc5[nH]c([C@@H]6[C@H]7CC[C@H](C7)N6C(=O)[C@@H](NC(=O)OC)C(C)C)nc5c4)ccc2-3)c[nH]1)C(C)C`, the MRT [1] is reported as 12.9 h, the bioavailability [2] is reported as 32.5% and the Cmax [3] is reported as 21.3 nM. The “Ratio EC50” value (Hepatitis C virus [4]) was 6.7, the AUC(0-t) [5] was 0.14 µM·h and the Ratio [6] was 12. For the same compound, the AUC(0-inf) [7] was 0.245 µM·h, the half-life [8] was 37.2 h and the Activity (Rattus norvegicus) was “Non-toxic”. The Vd [9] was 2.66 L/kg, the EC50 (Hepatitis C virus [10]) was 0.004 nM and the AUC(0-inf) [11] was 0.695 µM·h. The hepatic extraction ratio at 1 h, 3 µM [12] was less than 0.127, the AUC(0-t) [13] was 4.01 µM·h and the Cmax [14] was 6.75 nM. The half-life [15] was 7.41 h, the Tmax [16] was 5.75 h and the AUC(0-t) [17] was 0.558 µM·h. It also gave a Tmax [18] of 5.5 h, a hepatic extraction ratio at 1 h, 3 µM [19] of less than 0.095 and an EC50 (Hepatitis C virus [20]) of 0.21 nM. For the same compound, the Cmax [21] was 133 nM, the concentration at 24 h [22] was 56.4 nM and the half-life [23] was 4.67 h. It also gave a bioavailability [24] of 41.1%, a half-life [25] of 44.2 h and a Tmax [26] of 5 h. For the same compound, the half-life [27] was 10.3 h, the concentration at 24 h [28] was 31.4 nM and the clearance [29] was 2.83 mL/min/kg. For the same compound, the AUC(0-t) [30] was 7.05 µM·h, the concentration at 24 h [31] was 98.8 nM and the Activity (Canis familiaris) was “Non-toxic”.
